Assay results from patent US5217960A, “Erythromycin derivatives” (priority 1991, dated 1993).
≈ marks a conversion by molar mass, not a printed value. Read-outs that look alike come from different tables or passages of the source.

Tests used:
Type in all cases: cell-based
[1] = test system: STREPTOCOCCUS PYOGENES 2548 INDUC; assay: In vitro antibacterial activity, agar dilution MIC; conditions: 24 h
[2] = test system: ESCHERICHIA COLI JUHL; assay: microbe, parasite or virus in culture
[3] = test system: STREPTOCOCCUS BOVIS A5169; assay: In vitro antibacterial activity, agar dilution MIC; conditions: 24 h
[4] = test system: STAPHYLOCOCCUS AUREUS NCTC 10649; assay: In vitro antibacterial activity, agar dilution MIC; conditions: NCTC10649, 24 h
[5] = test system: PSEUDOMONAS AERUGINOSA A5007; assay: In vitro antibacterial activity, agar dilution MIC; conditions: P. aeruginosa A5007, BHI agar, 35-37° C., 20 to 24 hours
[6] = test system: ESCHERICHIA COLI KNK 437; assay: microbe, parasite or virus in culture; conditions: E. coli KNK 437, BHI agar, 35-37° C., 20 to 24 hours
[7] = test system: PSEUDOMONAS AERUGINOSA K799/WT; assay: In vitro antibacterial activity, agar dilution MIC; conditions: P. aeruginosa K799/WT, BHI agar, 35-37° C., 20 to 24 hours
[8] = test system: M[…] ATCC 4698; assay: In vitro antibacterial activity, agar dilution MIC; conditions: Micrococcus luteus, ATCC4698, 24 h
Protocol: (§1) Representative compounds of the present invention were assayed in vitro for antibacterial activity as follows: Twelve petri dishes containing successive aqueous dilutions of the test compound mixed with 10 ml of sterilized Brain Heart Infusion (BHI) agar (Difco 0418-01-5) were prepared. Each plate was inoculated with 1:100 (or 1:10 for slow-growing strains, such as Micrococcus and Streptococcus) dilutions of up to 32 different microorganisms, using a Steers replicator block. The inoculated plates were incubated at 35°-37° C. for 20 to 24 hours. In addition, a control plate, using BHI agar containing no test compound, was prepared and incubated at the beginning and end of each test.
(§2) An additional plate containing a compound having known susceptibility patterns for the organisms being tested and belonging to the same antibiotic class as the test compound was also prepared and incubated as a further control, as well as to provide test-to-test comparability. Erythromycin A was used for this purpose.
(§3) After incubation, each disk was read. The minimum inhibitory concentration (MIC) was defined as the lowest concentration of drug yielding no growth, a slight haze, or sparsely isolated colonies on the inoculum spot as compared to the growth control. The results of this assay, shown below in Tables 1 and 2, support the conclusion that the compounds of the invention are effective antibacterial agents.

[9] = test system: M[…] ATCC 9341; assay: In vitro antibacterial activity, agar dilution MIC; conditions: Micrococcus luteus, ATCC9341, 24 h
Protocol: as §1, §2, §3

[10] = test system: PSEUDOMONAS AERUGINOSA K799/61; assay: In vitro antibacterial activity, agar dilution MIC; conditions: 24 h
Protocol: as §1, §2, §3

[11] = test system: EN[…] ATCC 8043; assay: In vitro antibacterial activity, agar dilution MIC; conditions: Enterococcus faecium, ATCC8043, 24 h
Protocol: as §1, §2, §3

[12] = test system: STAPHYLOCOCCUS AUREUS 45; assay: In vitro antibacterial activity, agar dilution MIC; conditions: 24 h
[13] = test system: PSEUDOMONAS CEPACIA 296I; assay: In vitro antibacterial activity, agar dilution MIC; conditions: Burkholderia cepacia; P. cepacia 296I; BHI agar, 35-37° C., 20 to 24 hours; read-out: MIC
[14] = test system: STAPHYLOCOCCUS AUREUS 1775; assay: In vitro antibacterial activity, agar dilution MIC; conditions: S. aureus 1775, BHI agar, 35-37° C., 20 to 24 hours, read-out: MIC
[15] = test system: ENTEROBACTER AEROGENES ATCC 13048; assay: In vitro antibacterial activity, agar dilution MIC; conditions: Klebsiella aerogenes
[16] = test system: PSEUDOMONAS AERUGINOSA BMH10; assay: In vitro antibacterial activity, agar dilution MIC; conditions: P. aeruginosa BMH10, BHI agar, 35-37° C., 20 to 24 hours, read-out: MIC
[17] = test system: STREPTOCOCCUS PYOGENES 930 CONST; assay: In vitro antibacterial activity, agar dilution MIC; conditions: S. pyogenes 930 CONST, BHI agar, 35-37° C., 20 to 24 hours, read-out: MIC
[18] = test system: ESCHERICHIA COLI DC-2; assay: In vitro antibacterial activity, agar dilution MIC; conditions: 24 h
[19] = test system: STAPHYLOCOCCUS AUREUS A5177; assay: In vitro antibacterial activity, agar dilution MIC
[20] = test system: ACINETOBACTER CALCOACETICUS CMX 669; assay: In vitro antibacterial activity, agar dilution MIC; conditions: A. calcoaceticus CMX 669, BHI agar, 35-37° C., 20 to 24 hours
[21] = test system: PROVIDENCIA STUARTII CMX 640; assay: microbe, parasite or virus in culture
[22] = test system: ESCHERICHIA COLI H560; assay: In vitro antibacterial activity, agar dilution MIC; conditions: E. coli H560, BHI agar, 35-37° C., 20 to 24 hours, read-out: MIC
[23] = test system: STAPHYLOCOCCUS AUREUS ATCC 6538P; assay: In vitro antibacterial activity, agar dilution MIC; conditions: ATCC6538P
[24] = test system: ESCHERICHIA COLI SS; assay: In vitro antibacterial activity, agar dilution MIC; conditions: 24 h
[25] = test system: STAPHYLOCOCCUS EPIDERMIDIS 3519; assay: microbe, parasite or virus in culture; conditions: S. epidermidis 3519, BHI agar, 35-37° C., 20 to 24 hours, read-out: MIC
[26] = test system: KLEBSIELLA PNEUMONIAE ATCC 8045; assay: In vitro antibacterial activity, agar dilution MIC; conditions: ATCC8045, 24 h
[27] = test system: STR[…] EES61; assay: In vitro antibacterial activity, agar dilution MIC; conditions: Streptococcus pyogenes, 24 h
Protocol: as §1, §2
(§4) After incubation, each disk was read. The minimum inhibitory concentration (MIC) was defined as the lowest concentration of drug yielding no growth, a slight haze, or sparsely isolated colonies on the inoculum spot as compared to the growth control.

[28] = test system: STR[…] 508; assay: In vitro antibacterial activity, agar dilution MIC; conditions: Streptococcus agalactiae, 24 h
Protocol: as §1, §2, §4

[29] = test system: STAPHYLOCOCCUS AUREUS CMX 553; assay: In vitro antibacterial activity, agar dilution MIC; conditions: S. aureus CMX 553, BHI agar, 35-37° C., 20 to 24 hours, read-out: MIC

SMILES	MIC [1]	MIC [4]	MIC [5]	MIC [6]	MIC [7]	MIC [8]	MIC [9]	MIC [10]	MIC [11]	MIC [12]	MIC [13]	MIC [14]	MIC [16]	MIC [17]	MIC [18]	MIC [20]	MIC [22]	MIC [24]	MIC [25]	MIC [26]	further results
CC[C@H]1OC(=O)[C@H](C)[C@@H](O[C@H]2C[C@@](C)(OC)[C@@H](O)[C@H](C)O2)[C@H](C)[C@@H](O[C@@H]2O[C@H](C)C[C@H](N(C)C)[C@H]2O)[C@](C)(O)C[C@@H](C)[C@@H](N(C)C)[C@H](C)[C@@H](O)[C@@]1(O)CNC [Compound 17, (9R)-9-deoxo-9-(N,N-dimethylamino)-21-(N-methylamino)-erythromycin A]	50 µg/mL (≈ 63.1 µM)	6.2 µg/mL (≈ 7.83 µM)	> 100 µg/mL	25 µg/mL (≈ 31.6 µM)	> 100 µg/mL	1.56 µg/mL (≈ 1.97 µM)	1.56 µg/mL (≈ 1.97 µM)	3.1 µg/mL (≈ 3.91 µM)	3.1 µg/mL (≈ 3.91 µM)	6.2 µg/mL (≈ 7.83 µM)	> 100 µg/mL	> 100 µg/mL	100 µg/mL (≈ 126 µM)	> 100 µg/mL	50 µg/mL (≈ 63.1 µM)	100 µg/mL (≈ 126 µM)	12.5 µg/mL (≈ 15.8 µM)	0.78 µg/mL (≈ 0.985 µM)	12.5 µg/mL (≈ 15.8 µM)	50 µg/mL (≈ 63.1 µM)	MIC ([2]; 24 h): 50 µg/mL (≈ 63.1 µM); MIC [3]: 0.78 µg/mL (≈ 0.985 µM); MIC ([15]; ATCC13048, E. aerogenes ATCC 13048, BHI agar, 35-37° C., 20 to 24 hours, read-out: MIC): 100 µg/mL (≈ 126 µM); MIC ([19]; S. aureus A5177, BHI agar, 35-37° C., 20 to 24 hours, read-out: MIC): > 100 µg/mL; MIC ([21]; 24 h): > 100 µg/mL; MIC ([23]; S. aureus ATCC 6538P, BHI agar, 35-37° C., 20 to 24 hours, read-out: MIC): 12.5 µg/mL (≈ 15.8 µM); MIC [27]: 0.78 µg/mL (≈ 0.985 µM); MIC [28]: 1.56 µg/mL (≈ 1.97 µM); MIC [29]: 12.5 µg/mL (≈ 15.8 µM)
CC[C@H]1OC(=O)[C@H](C)[C@@H](O[C@H]2C[C@@](C)(OC)[C@@H](O)[C@H](C)O2)[C@H](C)[C@@H](O[C@@H]2O[C@H](C)C[C@H](N(C)C)[C@H]2O)[C@](C)(O)C[C@@H](C)[C@@H](N(C)C)[C@H](C)[C@@H](O)[C@@]1(O)CN(C)C [Compound 18, (9R)-9,21-di-(N,N-dimethylamino)-9-deoxoerythromycin A]	25 µg/mL (≈ 31 µM)	1.56 µg/mL (≈ 1.94 µM)	> 100 µg/mL	12.5 µg/mL (≈ 15.5 µM)	> 100 µg/mL	0.78 µg/mL (≈ 0.968 µM)	0.2 µg/mL (≈ 0.248 µM)	1.56 µg/mL (≈ 1.94 µM)	0.39 µg/mL (≈ 0.484 µM)	1.56 µg/mL (≈ 1.94 µM)	> 100 µg/mL	> 100 µg/mL	100 µg/mL (≈ 124 µM)	> 100 µg/mL	6.2 µg/mL (≈ 7.69 µM)	12.5 µg/mL (≈ 15.5 µM)	3.1 µg/mL (≈ 3.85 µM)	0.2 µg/mL (≈ 0.248 µM)	3.1 µg/mL (≈ 3.85 µM)	6.2 µg/mL (≈ 7.69 µM)	MIC ([2]; E. coli JUHL, BHI agar, 35-37° C., 20 to 24 hours, read-out: MIC): 12.5 µg/mL (≈ 15.5 µM); MIC ([15]; ATCC13048, 24 h): 25 µg/mL (≈ 31 µM); MIC ([19]; 24 h): 25 µg/mL (≈ 31 µM); MIC ([21]; P. stuartii CMX 640, BHI agar, 35-37° C., 20 to 24 hours): > 100 µg/mL; MIC ([23]; 24 h): 1.56 µg/mL (≈ 1.94 µM); MIC [27]: 0.1 µg/mL (≈ 0.124 µM); MIC [28]: 0.2 µg/mL (≈ 0.248 µM); MIC [29]: 3.1 µg/mL (≈ 3.85 µM)
